# In the supplement of paper PMC11424490:
# How the values were obtained:
# NCI-H2122 = assay: combination cScore with adagrasib (Bliss gap around IC50) (%PoC); higher = stronger additive effect
# Procedure, shortened: (§1)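 Scores represent the average Bliss-independence gap, expected minus measured viability, in a field surrounding both monotherapy IC50s, with the top concentrations used when no IC50 was reached. Cells (NCI-H2122, NCI-H358, SW837) were seeded at 500 or 800 per well in 384-well plates, dosed in matrices at 24 h and grown for 72 h, with SW837 grown for 144 h. Viability was measured by CellTiter-Glo, normalised to vehicle wells and fitted with four-parameter curves.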
# SW837 = assay: as above
# Procedure, shortened: as §1
Structure (SMILES),combination cScore with adagrasib (NCI-H2122),combination cScore with adagrasib (SW837)
Cc1cn(CCN2CCN(c3ccccc3-c3cc(C#N)cc(C(=O)NCCCN4CCCC4)c3)CC2)c2ccccc12 [LLY-507] + C=C(F)C(=O)N1CCN(c2nc(OC[C@@H]3CCCN3C)nc3c2CCN(c2cccc4cccc(Cl)c24)C3)C[C@@H]1CC#N [adagrasib],12.6,20.3
Cc1ccc(NC(=O)c2ccnc(C(F)(F)F)c2)cc1-c1cc(OCCO)nc(N2CCOCC2)c1 [LXH-254] + C=C(F)C(=O)N1CCN(c2nc(OC[C@@H]3CCCN3C)nc3c2CCN(c2cccc4cccc(Cl)c24)C3)C[C@@H]1CC#N [adagrasib],-3.51,0.67
Nc1cccc2c1CN(C1CCC(=O)NC1=O)C2=O (stereo unspecified) [Lenalidomide] + C=C(F)C(=O)N1CCN(c2nc(OC[C@@H]3CCCN3C)nc3c2CCN(c2cccc4cccc(Cl)c24)C3)C[C@@H]1CC#N [adagrasib],-12.8,-3.14
O=C(O)c1nn(Cc2ccc(Cl)cc2Cl)c2ccccc12 [Lonidamine] + C=C(F)C(=O)N1CCN(c2nc(OC[C@@H]3CCCN3C)nc3c2CCN(c2cccc4cccc(Cl)c24)C3)C[C@@H]1CC#N [adagrasib],-1.92,-1.95
CC[C@H](C)C(=O)O[C@H]1C[C@@H](C)C=C2C=C[C@H](C)[C@H](CC[C@@H]3C[C@@H](O)CC(=O)O3)[C@H]21 [Lovastatin] + C=C(F)C(=O)N1CCN(c2nc(OC[C@@H]3CCCN3C)nc3c2CCN(c2cccc4cccc(Cl)c24)C3)C[C@@H]1CC#N [adagrasib],-4.64,1.03
COc1cc(Nc2ncc3c(n2)-c2ccc(Cl)cc2C(c2c(F)cccc2OC)=NC3)ccc1C(=O)O [MLN8237] + C=C(F)C(=O)N1CCN(c2nc(OC[C@@H]3CCCN3C)nc3c2CCN(c2cccc4cccc(Cl)c24)C3)C[C@@H]1CC#N [adagrasib],-0.97,4.72
Cc1ccc(NC(=O)c2ccc(CN3CCN(C)CC3)cc2)cc1Nc1nc(-c2cccnc2)cs1 [Masitinib] + C=C(F)C(=O)N1CCN(c2nc(OC[C@@H]3CCCN3C)nc3c2CCN(c2cccc4cccc(Cl)c24)C3)C[C@@H]1CC#N [adagrasib],5.2,-2.55
C[C@H](Cc1ccc(O)c(O)c1)[C@@H](C)Cc1ccc(O)c(O)c1 [Masoprocol] + C=C(F)C(=O)N1CCN(c2nc(OC[C@@H]3CCCN3C)nc3c2CCN(c2cccc4cccc(Cl)c24)C3)C[C@@H]1CC#N [adagrasib],1.34,-3.46
N[C@@H](Cc1ccc(N(CCCl)CCCl)cc1)C(=O)O [Melphalan] + C=C(F)C(=O)N1CCN(c2nc(OC[C@@H]3CCCN3C)nc3c2CCN(c2cccc4cccc(Cl)c24)C3)C[C@@H]1CC#N [adagrasib],3.55,-0.68
CN(C)C(=N)NC(=N)N [Metformin] + C=C(F)C(=O)N1CCN(c2nc(OC[C@@H]3CCCN3C)nc3c2CCN(c2cccc4cccc(Cl)c24)C3)C[C@@H]1CC#N [adagrasib],-8.41,1.92
CN(Cc1cnc2nc(N)nc(N)c2n1)c1ccc(C(=O)N[C@@H](CCC(=O)O)C(=O)O)cc1 [Methotrexate] + C=C(F)C(=O)N1CCN(c2nc(OC[C@@H]3CCCN3C)nc3c2CCN(c2cccc4cccc(Cl)c24)C3)C[C@@H]1CC#N [adagrasib],-2.65,-8.99
CO[C@@]12[C@H](COC(N)=O)C3=C(C(=O)C(C)=C(N)C3=O)N1C[C@@H]1N[C@@H]12 [Mitomycin C] + C=C(F)C(=O)N1CCN(c2nc(OC[C@@H]3CCCN3C)nc3c2CCN(c2cccc4cccc(Cl)c24)C3)C[C@@H]1CC#N [adagrasib],0.77,-3.24
CCc1cccc(CC)c1NC(=O)c1nn(C)c2c1CCc1cnc(Nc3ccc(C(=O)NC4CCN(C)CC4)cc3OC(F)(F)F)nc1-2 [NMS-P715] + C=C(F)C(=O)N1CCN(c2nc(OC[C@@H]3CCCN3C)nc3c2CCN(c2cccc4cccc(Cl)c24)C3)C[C@@H]1CC#N [adagrasib],-2.37,2.41
O=c1cc(N2CCOCC2)oc2c(-c3cccc4c3sc3ccccc34)cccc12 [NU-7441] + C=C(F)C(=O)N1CCN(c2nc(OC[C@@H]3CCCN3C)nc3c2CCN(c2cccc4cccc(Cl)c24)C3)C[C@@H]1CC#N [adagrasib],6.81,11.6
Cn1c(=O)n(-c2ccc(C(C)(C)C#N)cc2)c2c3cc(-c4cnc5ccccc5c4)ccc3ncc21 [NVP-BEZ235] + C=C(F)C(=O)N1CCN(c2nc(OC[C@@H]3CCCN3C)nc3c2CCN(c2cccc4cccc(Cl)c24)C3)C[C@@H]1CC#N [adagrasib],3.55,6.19
Cc1cn(-c2cc(NC(=O)c3ccc(C)c(Nc4nccc(-c5cccnc5)n4)c3)cc(C(F)(F)F)c2)cn1 [Nilotinib] + C=C(F)C(=O)N1CCN(c2nc(OC[C@@H]3CCCN3C)nc3c2CCN(c2cccc4cccc(Cl)c24)C3)C[C@@H]1CC#N [adagrasib],10.6,9.6
COC(=O)c1ccc2c(c1)NC(=O)/C2=C(\Nc1ccc(N(C)C(=O)CN2CCN(C)CC2)cc1)c1ccccc1 [Nintedanib] + C=C(F)C(=O)N1CCN(c2nc(OC[C@@H]3CCCN3C)nc3c2CCN(c2cccc4cccc(Cl)c24)C3)C[C@@H]1CC#N [adagrasib],7.6,4.49
CN1CCN(c2ccc(-c3cccc(CN4CCOCC4)c3)cc2NC(=O)c2c[nH]c(=O)cc2C(F)(F)F)CC1 [OICR-9429] + C=C(F)C(=O)N1CCN(c2nc(OC[C@@H]3CCCN3C)nc3c2CCN(c2cccc4cccc(Cl)c24)C3)C[C@@H]1CC#N [adagrasib],-2.61,8.92
N[C@H]1CC[C@H](N[C@@H]2C[C@H]2c2ccccc2)CC1 [ORY-1001] + C=C(F)C(=O)N1CCN(c2nc(OC[C@@H]3CCCN3C)nc3c2CCN(c2cccc4cccc(Cl)c24)C3)C[C@@H]1CC#N [adagrasib],-4.53,2.12
O=C(O)C(=O)O.[NH-][C@@H]1CCCC[C@H]1[NH-].[Pt+2] [Oxaliplatin] + C=C(F)C(=O)N1CCN(c2nc(OC[C@@H]3CCCN3C)nc3c2CCN(c2cccc4cccc(Cl)c24)C3)C[C@@H]1CC#N [adagrasib],5.21,-1.13
CC(=O)O[C@H]1C(=O)[C@@]2(C)[C@H]([C@H](OC(=O)c3ccccc3)[C@]3(O)C[C@H](OC(=O)[C@H](O)[C@@H](NC(=O)c4ccccc4)c4ccccc4)C(C)=C1C3(C)C)[C@]1(OC(C)=O)CO[C@@H]1C[C@@H]2O [Paclitaxel] + C=C(F)C(=O)N1CCN(c2nc(OC[C@@H]3CCCN3C)nc3c2CCN(c2cccc4cccc(Cl)c24)C3)C[C@@H]1CC#N [adagrasib],0.85,2.18
Cc1[nH]c2ccccc2c1CCNCc1ccc(/C=C/C(=O)NO)cc1 [Panobinostat] + C=C(F)C(=O)N1CCN(c2nc(OC[C@@H]3CCCN3C)nc3c2CCN(c2cccc4cccc(Cl)c24)C3)C[C@@H]1CC#N [adagrasib],2.38,5.72
Cc1ccc(Nc2nccc(N(C)c3ccc4c(C)n(C)nc4c3)n2)cc1S(N)(=O)=O [Pazopanib] + C=C(F)C(=O)N1CCN(c2nc(OC[C@@H]3CCCN3C)nc3c2CCN(c2cccc4cccc(Cl)c24)C3)C[C@@H]1CC#N [adagrasib],-6.25,-7.8
Nc1nc2[nH]cc(CCc3ccc(C(=O)N[C@@H](CCC(=O)O)C(=O)O)cc3)c2c(=O)[nH]1 [Pemetrexed] + C=C(F)C(=O)N1CCN(c2nc(OC[C@@H]3CCCN3C)nc3c2CCN(c2cccc4cccc(Cl)c24)C3)C[C@@H]1CC#N [adagrasib],2.77,5.08
CC(C)(C)c1cc(NC(=O)Nc2ccc(-c3cn4c(n3)sc3cc(OCCN5CCOCC5)ccc34)cc2)no1 [Quizartinib] + C=C(F)C(=O)N1CCN(c2nc(OC[C@@H]3CCCN3C)nc3c2CCN(c2cccc4cccc(Cl)c24)C3)C[C@@H]1CC#N [adagrasib],-3.38,0.28
Cc1ncc(NC(=O)c2cccc(C(F)(F)F)c2)cc1-c1cnc(OC2CCOCC2)c(N2CCOCC2)c1 [RAF-709] + C=C(F)C(=O)N1CCN(c2nc(OC[C@@H]3CCCN3C)nc3c2CCN(c2cccc4cccc(Cl)c24)C3)C[C@@H]1CC#N [adagrasib],7.22,4.87
CO[C@H]1C[C@@H]2CC[C@@H](C)[C@@](O)(O2)C(=O)C(=O)N2CCCC[C@H]2C(=O)O[C@H]([C@H](C)C[C@@H]2CC[C@@H](O)[C@H](OC)C2)CC(=O)[C@H](C)/C=C(\C)[C@@H](O)[C@@H](OC)C(=O)[C@H](C)C[C@H](C)/C=C/C=C/C=C/1C [Rapamycin] + C=C(F)C(=O)N1CCN(c2nc(OC[C@@H]3CCCN3C)nc3c2CCN(c2cccc4cccc(Cl)c24)C3)C[C@@H]1CC#N [adagrasib],4.11,6.52
CNC(=O)c1cc(Oc2ccc(NC(=O)Nc3ccc(Cl)c(C(F)(F)F)c3)c(F)c2)ccn1 [Regorafenib] + C=C(F)C(=O)N1CCN(c2nc(OC[C@@H]3CCCN3C)nc3c2CCN(c2cccc4cccc(Cl)c24)C3)C[C@@H]1CC#N [adagrasib],-3.41,-1.71
